We go through nine molecules from patent US20260273072A1, “NOVEL PLK1 DEGRADATION INDUCING COMPOUND” (UPPTHERA, INC., priority 2023, published 2026).

What all share (assay type): cell-based
In one assay the test system is NCI-H526 cell line. In words: Cell viability assay for NCI-H526 cell line (EZ-Cytox). To be noted: Homo sapiens, NCI-H526, 120 h; H526 cells, 5 days, 3000 nM to 0.46 nM. The gist of the method:
(§1)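 Human SCLC lines cultured with compound for 5 days in a CO2 incubator; viability read by EZ-Cytox absorbance at 450 nm after 3 min shaking. IC50 reported in activity bins (A: <30 nM up to E: <400 nM).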

The subject of another assay is MRC-5 cell line. The assay can be described thus: Cell viability assay for MRC-5 cell line (EZ-Cytox). The note with it: Homo sapiens, MRC5, 120 h; MRC-5 normal cell line, 5 days, 10000 nM to 1.52 nM; read-out: Activity: IC50 value, cell viability, MRC-5 cell line (Exemplary Compounds). As for the experimental part:
4. Cell Viability Assay for MRC-5 Cell Line
(1) Culture of MRC-5 Cell Line
The MRC-5 cell line was purchased from KCLB. Passage of cultured cells was maintained within P15.
(2) Treatment of Compounds of the Present Invention
Then, it was cultured in 37° C. CO2 incubator (Thermo Fisher Scientific) for 5 days.
(3) Cytotoxicity Experiment
CO2 incubator for 4 hours.

The test system of the next assay is NCI-H69 cell line. The assay can be described thus: Cell viability assay for NCI-H69 cell line (EZ-Cytox). The note with it: Homo sapiens, NCI-H69, 120 h; H69 cells, 5 days, 3000 nM to 0.46 nM. In a few lines:
as §1

In a further assay the target is T1, PLK1 (Homo sapiens, UniProt P53350).
T1 construct: endogenous in cells; host or cells: HeLa LgBit (Plk1-HiBit KI): HeLa stably expressing LgBit, with a CRISPR/Cas9 knock-in of HiBit at the endogenous PLK1 locus
In words: Luciferase assay for PLK1 in HeLa LgBit (Plk1-HiBit KI) cell line. The note with it: 300 nM compound, luminescence after 9 hours. The gist of the method:
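HeLa LgBit cells with endogenous PLK1 C-terminally HiBit-tagged by CRISPR knock-in; released from 24 h 2 mM thymidine block, seeded, grown 18 h. Compounds at 300 nM with Endurazine substrate; luminescence (470-480 nm) tracked in real time, expressed as ratio to DMSO.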

SMILES strings stand for the structures.

T1 sequence (P53350 whole entry): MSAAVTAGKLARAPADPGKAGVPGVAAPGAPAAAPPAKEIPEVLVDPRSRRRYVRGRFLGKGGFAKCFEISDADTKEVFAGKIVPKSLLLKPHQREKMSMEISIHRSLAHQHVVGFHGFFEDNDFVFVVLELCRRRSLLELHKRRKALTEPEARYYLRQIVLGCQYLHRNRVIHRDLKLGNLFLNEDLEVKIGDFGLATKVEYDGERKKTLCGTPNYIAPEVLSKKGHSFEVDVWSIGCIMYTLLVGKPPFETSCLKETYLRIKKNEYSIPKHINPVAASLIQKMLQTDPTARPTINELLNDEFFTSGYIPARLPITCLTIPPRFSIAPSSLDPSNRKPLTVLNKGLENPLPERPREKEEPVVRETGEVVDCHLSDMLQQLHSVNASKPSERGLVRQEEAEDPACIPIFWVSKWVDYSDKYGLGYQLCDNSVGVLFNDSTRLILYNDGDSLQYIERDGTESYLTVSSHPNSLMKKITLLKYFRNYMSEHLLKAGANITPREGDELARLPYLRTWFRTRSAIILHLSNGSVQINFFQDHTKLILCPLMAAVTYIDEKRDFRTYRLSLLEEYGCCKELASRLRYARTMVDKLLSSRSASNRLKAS

By IC50 is commonly meant the concentration that inhibits the measured activity by half. Take `COc1cc(C(=O)NC2CCN(CCN3CCN(c4cc(OC)c(NC5CCC(=O)NC5=O)cc4F)CC3)CC2)ccc1Nc1ncc2c(n1)N(C1CCCC1)CC(F)(F)C(=O)N2C` (stereo not drawn) [Compound 48, 4-((9-cyclopentyl-7,7-difluoro-5-methyl-6-oxo-6,7,8,9-tetrahydro-5H-pyrimido[4,5-b][1,4]diazepin-2-yl)amino)-N-(1-(2-(4-(4-((2,6-dioxopiperidin-3-yl)amino)-2-fluoro-5-methoxyphenyl)piperazin-1-yl)ethyl)piperidin-4-yl)-3-methoxybenzamide]: the results for the IC50 in the assay with NCI-H526 cell line, in the assay on MRC-5 cell line and in the assay on NCI-H69 cell line were below 30 nM, above 10000 nM and below 50 nM, respectively. Also, the “Activity: ratio of the luminescence value of compound treatment group to DMSO treatment group” value (“Activity: ratio” for short) on PLK1 is reported as “++ (++: <0.5)”.

As for `COc1cc(C(=O)NC2CCN(CCN3CCN(c4cc(OC)c(NC5CCC(=O)NC5=O)cc4F)CC3)CC2)c(F)cc1Nc1ncc2c(n1)N(C1CCCC1)CC(F)(F)C(=O)N2C` (stereo not drawn) [Compound 49, 4-((9-cyclopentyl-7,7-difluoro-5-methyl-6-oxo-6,7,8,9-tetrahydro-5H-pyrimido[4,5-b][1,4]diazepin-2-yl)amino)-N-(1-(2-(4-(4-((2,6-dioxopiperidin-3-yl)amino)-2-fluoro-5-methoxyphenyl)piperazin-1-yl)ethyl)piperidin-4-yl)-2-fluoro-5-methoxybenz amide], the IC50 was below 30 nM with NCI-H526 cell line, above 10000 nM with MRC-5 cell line and below 50 nM in the assay on NCI-H69 cell line. For the same molecule, the “Activity: ratio” value at PLK1 was “++ (++: <0.5)”.

Regarding `COc1cc(C(=O)NC2CCN(CCC3CCN(c4cc(OC)c(NC5CCC(=O)NC5=O)cc4F)CC3)CC2)c(F)cc1Nc1ncc2c(n1)N(C(C)C)CC(F)(F)C(=O)N2C` (stereo not drawn) [Compound 50, 4-((7,7-difluoro-9-isopropyl-5-methyl-6-oxo-6,7,8,9-tetrahydro-5H-pyrimido[4,5-b][1,4]diazepin-2-yl)amino)-N-(1-(2-(1-(4-((2,6-dioxopiperidin-3-yl)amino)-2-fluoro-5-methoxyphenyl)piperidin-4-yl)ethyl)piperidin-4-yl)-2-fluoro-5-methoxybenzamide], the IC50 was below 50 nM in the assay on NCI-H526 cell line, above 10000 nM in the assay with MRC-5 cell line and below 100 nM with NCI-H69 cell line. The “Activity: ratio” value at PLK1 is “++ (++: <0.5)”.

On to `COc1cc(C(=O)NC2CC3(CCN(CC4CCN(c5cc(OC)c(NC6CCC(=O)NC6=O)cc5F)CC4)CC3)C2)ccc1Nc1ncc2c(n1)N(C1CCCC1)CC(F)(F)C(=O)N2C` (stereo not drawn) [Compound 51, 4-((9-cyclopentyl-7,7-difluoro-5-methyl-6-oxo-6,7,8,9-tetrahydro-5H-pyrimido[4,5-b][1,4]diazepin-2-yl)amino)-N-(7-((1-(4-((2,6-dioxopiperidin-3-yl)amino)-2-fluoro-5-methoxyphenyl)piperidin-4-yl)methyl)-7-azaspiro[3.5]nonan-2-yl)-3-methoxybenzamide], for which the values for the IC50 with NCI-H526 cell line, in the assay on MRC-5 cell line and in the assay on NCI-H69 cell line were below 30 nM, above 10000 nM and below 30 nM, respectively. The “Activity: ratio” value at PLK1 was “+++ (+++: <0.3)”.

Consider `COc1cc(C(=O)NC2CC3(CCN(CC4CCN(c5cc(OC)c(NC6CCC(=O)NC6=O)cc5F)CC4)CC3)C2)c(F)cc1Nc1ncc2c(n1)N(C(C)C)CC(F)(F)C(=O)N2C` (stereo not drawn) [Compound 52, 4-((7,7-difluoro-9-isopropyl-5-methyl-6-oxo-6,7,8,9-tetrahydro-5H-pyrimido[4,5-b][1,4]diazepin-2-yl)amino)-N-(7-((1-(4-((2,6-dioxopiperidin-3-yl)amino)-2-fluoro-5-methoxyphenyl)piperidin-4-yl)methyl)-7-azaspiro[3.5]nonan-2-yl)-2-fluoro-5-methoxybenzamide], for which the IC50 was below 30 nM in the assay on NCI-H526 cell line, above 10000 nM in the assay on MRC-5 cell line and below 30 nM in the assay on NCI-H69 cell line. Also, on PLK1, the “Activity: ratio” value was “++ (++: <0.5)”.

As to `COc1cc(C(=O)NC2CC3(CCN(CC4CCN(c5cc(OC)c(NC6CCC(=O)NC6=O)cc5F)CC4)CC3)C2)ncc1Nc1ncc2c(n1)N(C(C)C)CC(F)(F)C(=O)N2C` (stereo not drawn) [Compound 53, 5-((7,7-difluoro-9-isopropyl-5-methyl-6-oxo-6,7,8,9-tetrahydro-5H-pyrimido[4,5-b][1,4]diazepin-2-yl)amino)-N-(7-((1-(4-((2,6-dioxopiperidin-3-yl)amino)-2-fluoro-5-methoxyphenyl)piperidin-4-yl)methyl)-7-azaspiro[3.5]nonan-2-yl)-4-methoxypicolinamide], the figures for the IC50 in the assay on NCI-H526 cell line, with MRC-5 cell line and in the assay with NCI-H69 cell line were below 30 nM, above 10000 nM and below 50 nM, respectively. In addition, the “Activity: ratio” value on PLK1 is given as “++ (++: <0.5)”.

Turning to `COc1cc(C(=O)NN2CCC(CCN3CCN(c4ccc(NC5CCC(=O)NC5=O)c(OC)c4F)CC3)CC2)ccc1Nc1ncc2c(n1)N(C1CCCC1)CC(F)(F)C(=O)N2C` (stereo not drawn) [Compound 54, 4-((9-cyclopentyl-7,7-difluoro-5-methyl-6-oxo-6,7,8,9-tetrahydro-5H-pyrimido[4,5-b][1,4]diazepin-2-yl)amino)-N-(4-(2-(4-(4-((2,6-dioxopiperidin-3-yl)amino)-2-fluoro-3-methoxyphenyl)piperazin-1-yl)ethyl)piperidin-1-yl)-3-methoxybenzamide], the IC50 is below 30 nM in the assay with NCI-H526 cell line, above 10000 nM in the assay with MRC-5 cell line and below 30 nM in the assay with NCI-H69 cell line. For the same molecule, the “Activity: ratio” value on PLK1 is recorded as “+++ (+++: <0.3)”.

As for `COc1cc(C(=O)NN2CCC(CCN3CCN(c4ccc(NC5CCC(=O)NC5=O)c(F)c4OC)CC3)CC2)ccc1Nc1ncc2c(n1)N(C1CCCC1)CC(F)(F)C(=O)N2C` (stereo not drawn) [Compound 55, 4-((9-cyclopentyl-7,7-difluoro-5-methyl-6-oxo-6,7,8,9-tetrahydro-5H-pyrimido[4,5-b][1,4]diazepin-2-yl)amino)-N-(4-(2-(4-(4-((2,6-dioxopiperidin-3-yl)amino)-3-fluoro-2-methoxyphenyl)piperazin-1-yl)ethyl)piperidin-1-yl)-3-methoxybenzamide], the IC50 in the assay on NCI-H526 cell line was below 30 nM; in the assay on MRC-5 cell line, above 10000 nM; in the assay with NCI-H69 cell line, below 30 nM. On PLK1, the “Activity: ratio” value is “+++ (+++: <0.3)”.

`COc1cc(C(=O)NN2CCC(CCN3CCN(c4cc(F)c(NC5CCC(=O)NC5=O)cc4OC)CC3)CC2)ccc1Nc1ncc2c(n1)N(C1CCCC1)CC(F)(F)C(=O)N2C` (stereo not drawn) [Compound 56, 4-((9-cyclopentyl-7,7-difluoro-5-methyl-6-oxo-6,7,8,9-tetrahydro-5H-pyrimido[4,5-b][1,4]diazepin-2-yl)amino)-N-(4-(2-(4-(4-((2,6-dioxopiperidin-3-yl)amino)-5-fluoro-2-methoxyphenyl)piperazin-1-yl)ethyl)piperidin-1-yl)-3-methoxybenzamide]: the results for the IC50 with NCI-H526 cell line, in the assay on MRC-5 cell line and in the assay on NCI-H69 cell line were below 30 nM, above 10000 nM and below 30 nM, respectively. The “Activity: ratio” value on PLK1 is reported as “++ (++: <0.5)”.
